Paper PMC7725824, “Fused isoselenazolium salts suppress breast cancer cell growth by dramatic increase in pyruvate-dependent mitochondrial ROS production” (Scientific Reports, 2020)

Experiments:
MCF-7 cells [1] = assay: NAD+/NADH assay kit measurement; format: cell-based, human; details: 2 μM, 10 min, vs control
Method: The NAD^+/NADH ratio in the MCF-7 cells exposed to the test compounds (2 μM) for 10 min was measured using an NAD^+/NADH assay kit (Abcam, ab65348) according to the manufacturer's instructions.

4T1 = assay: Cytotoxicity assay (MTT), 4T1; format: cell-based, mouse; details: Mus musculus, 4T1; breast cancer cell line; MTT, 48 h; mean ± S.D., 3 experiments; read-out: Cytotoxicity, IC50, 4T1
Method: (§1) MCF-7 (human breast adenocarcinoma, estrogen-positive) and 4T1 (mouse carcinoma), as breast cancer cell lines, and H9C2 (rat cardiomyoblasts), NIH 3T3 (mouse fibroblasts), HEKa (primary human epidermal keratinocytes), MDCK (Madin-Darby Canine Kidney) cells, and A7r5 (rat vascular smooth muscle cells), as normal cell lines, were obtained from the American Type Culture Collection [ATCC] collection for use in the current study. All cell lines were cultured in Dulbecco's modified Eagle's medium (DMEM) containing 10% fetal bovine serum (FBS) and 4 mM L-glutamine at 37 °C and 5% CO2.
(§2) Cell viability was assessed by the addition of 3-(4,5-dimethylthiazol-2-yl)-2,5-diphenyltetrazolinium bromide (MTT). Briefly, cells were seeded (2–6 × 10^4 cells/ml) in 96-well plates and allowed to attach for 24 h. Solutions of test compounds were prepared and serially diluted to obtain the appropriate concentrations. The cells were treated with the test compounds at different concentrations (0.032–100 µM) and incubated for 48 h at 37 °C and 5% CO2. Then, the culture medium was removed, and medium containing 0.2 mg/ml MTT was added. After 3 h (37 °C, 5% CO2), the MTT-containing medium was removed, and 200 μl of dimethyl sulfoxide (DMSO) was immediately added to each sample. The absorbance was assessed at 540 nm using a Tecan multiplate reader Infinite 1000 (Austria). The half-maximal inhibitory concentration (IC50) of each compound was calculated using Graph Pad Prism 3.0.

[2] = Cytotoxicity assay (MTT), MDCK; format: cell-based, Canine; details: dog, MDCK cells, normal cell line, mean ± S.D., 3 experiments
Method: as §1, §2

MCF-7 = assay: Cytotoxicity assay (MTT), MCF-7; format: cell-based, human; details: Homo sapiens, MCF7; breast cancer cell line; MTT, 48 h; mean ± S.D., 3 experiments; read-out: Cytotoxicity, IC50, MCF-7
Method: as §1, §2

permeabilized 4T1 cells = assay: High-resolution fluorespirometry (respiration and H2O2 flux); format: cell-based, mouse
Method: High-resolution fluorespirometry was performed using an Oxygraph-2 k system (OROBOROS INSTRUMENTS, Austria). All experiments were performed at 37 °C in MiR05 medium (110 mM sucrose, 60 mM K-lactobionate, 0.5 mM EGTA, 3 mM MgCl2, 20 mM taurine, 10 mM KH2PO4, 20 mM HEPES, pH 7.1 at 30 °C, and 0.1% BSA essentially fatty acid free). The medium was reoxygenated when the oxygen concentration dropped to 80 µM. H2O2 flux was simultaneously measured with respirometry in the O2k-Fluorometer using the H2O2-sensitive probe Ampliflu Red (AmR) as described. The H2O2/O flux ratio [%] was calculated as the H2O2 flux/(0.5 O2 flux).
In permeabilized 4T1 cells, pyruvate + malate (5 and 2 mM) or glutamate + malate (10 and 2 mM) were used to determine complex I (CI)-linked LEAK (L) respiration. ADP was added to a concentration of 5 mM to determine the oxidative phosphorylation-dependent respiration (OXPHOS state). Succinate (10 mM, complex II (CII) substrate) was then added to reconstitute convergent CI&II-linked respiration. Rotenone (0.5 µM, an inhibitor of complex I) and antimycin A (2.5 µM, an inhibitor of complex III) were added to determine the CII-linked OXPHOS capacity and residual oxygen consumption (ROX), respectively. Compound 6 was added to permeabilized cells after the addition of the respective substrates in the OXPHOS state (titration experiment) or in the LEAK state. In addition, compounds 3, 6 and 7 were tested at 1 µM in the OXPHOS coupling protocol in the LEAK state. The OXPHOS coupling efficiency was calculated as: 1-Resp.rateLEAKstate/Resp.rateOXPHOSstate
The substrate-dependent flux control factor was calculated as: 1-Resp.ratebeforeadditionofrespectivesubstrate/Resp.rateafteradditionofrespectivesubstrate

[3] = Cytotoxicity assay (MTT), H9C2; format: cell-based, rat; details: rat, H9C2 cells (cardiomyoblasts); normal cell line; MTT, 48 h; mean ± S.D., 3 experiments
Method: as §1, §2

MCF-7 cells [4] = assay: Fluorometric measurement of NMN level; format: cell-based, human; details: 2 μM, 10 min, vs control
Method: For fluorometric measurements of NMN, a previously described method was used, with minor modifications. […] The cells were washed with PBS and then lysed by adding 200 μl of 1 M HClO4 to each well and incubating at 4 °C for 20 min. The cells were harvested by scraping and transferred to a tube. The extracts were neutralized with 100 μl of 2 M KOH for 5 min at room temperature and 50 μl of 0.1 M bicine (pH 7.4) was added. The samples were centrifuged at 14 000 × g for 10 min at 4 °C, and the supernatant was collected for further analysis. The protein concentration in each sample was determined using a Bio-Rad protein assay kit. […] The reaction was incubated for 2 min at 4 °C, after which 45 μl of 88% formic acid was added, and the samples were incubated for another 10 min at 37 °C on a shaker. The fluorescence was measured using a Tecan multiplate reader Infinite 1000 (Austria) with excitation at 382 nm and emission at […].

[5] = 1 µM, pyruvate-dependent OXPHOS state
[6] = titration, pyruvate + malate and glutamate + malate, OXPHOS

**Q.** With `OC1(c2[se][n+]3ccsc3c2Br)CCCCC1` [Compound 6, 3-bromo-2-(1-hydroxycyclohexyl)[1,2]selenazolo[2,3-b]thiazolium chloride] as the compound, how does the “decrease in NAD+ level” value (MCF-7 cells [1]) read?
**A.** Its value is 25%.

**Q.** What about the “decrease in NAD+/NADH ratio” value (MCF-7 cells [1]) of the same compound?
**A.** The value was “without affecting”.

**Q.** What about the “decrease in NADH level” value (MCF-7 cells [1]) of the same compound?
**A.** Its value is “without affecting”.

**Q.** What about the IC50 (4T1) of the same compound?
**A.** The IC50 was 1.7 ± 0.2 µM.

**Q.** What about the IC50 at 48 h [2] of the same compound?
**A.** The IC50 at 48 h was 6.58 ± 0.33 µM.

**Q.** What about the IC50 (MCF-7) of the same compound?
**A.** Its IC50 is 3.23 ± 0.03 µM.

**Q.** And the “H2O2 production and H2O2/O ratio in the CI&II-linked OXPHOS state” value (permeabilized 4T1 cells; 1 µM)?
**A.** Its value is “significant increases”.

**Q.** What about the OXPHOS coupling efficiency (permeabilized 4T1 cells; 1 µM) of the same compound?
**A.** Its OXPHOS coupling efficiency is “significant decrease”.

**Q.** What about the “respiration rate in the OXPHOS state with pyruvate and malate” value (permeabilized 4T1 cells; 1 µM) of the same compound?
**A.** Its value is “decreased”.

**Q.** What about the “increase in H2O2/O ratio” value (permeabilized 4T1 cells; [5]) of the same compound?
**A.** The value was 2.8 fold.

**Q.** What about the “increase in H2O2 production” value (permeabilized 4T1 cells; [5]) of the same compound?
**A.** The value was 2.3 fold.

**Q.** And the “mitochondrial function in the CII-linked OXPHOS state” value (permeabilized 4T1 cells; titration)?
**A.** Its value is “no significant changes”.

**Q.** And the “H2O2 production with complex I (NADH-linked) substrates” value (permeabilized 4T1 cells; [6])?
**A.** The value was “increased”.

**Q.** What about the “mitochondrial respiration rate with complex I (NADH-linked) substrates” value (permeabilized 4T1 cells; [6]) of the same compound?
**A.** The value was “inhibited”.

**Q.** And the IC50 at 48 h [3]?
**A.** The IC50 at 48 h was 3.7 ± 0.2 µM.

**Q.** And the “decrease in NMN levels” value (MCF-7 cells [4])?
**A.** Its value is 26%.
